The text below walks through data of US20140329863A1 (priority 2011, published 2014).

A short description of data set [1]: Toleration studies in mice.
The nature of data set [2]: Single-dose pharmacokinetics in FVB mice (oral gavage, IV). As to conditions: for Kp / bioavailability: female, FVB, mouse, po, 10 mg/kg; for Kp: brain and plasma; for bioavailability: plasma.
The test system of data set [3] is PrP^Sc in dividing ScN2a-cl3 cells. Type of data set: cell-based, mouse.
A further data set is described as follows: Binding in human plasma. The following applies: 1 μM; mean ± SD, n = 3 (warfarin n = 2).
Data set [4] in a line: Fraction unbound in cell-culture media. In kind it is in vitro ADME. As to conditions: 1 μM; mean ± SD, n = 3.
The nature of data set [5]: Tolerability / toxicity on repeated dosing in mice.
Data set [6] can be described thus: Multidose (three-day) pharmacokinetics in liquid diet in FVB mice. The following applies: FVB, mouse, in vivo.
Data set [7] is described as follows: Hepatic microsomal stability, rat. The following applies: for half-life at 1 μM: Sprague-Dawley, rat, pH 7.4.
A further data set is described as follows: Binding in mouse plasma. As to conditions: 1 μM; mean ± SD, n = 3 (warfarin n = 2).
Data set [8] is described as follows: Hepatic microsomal stability, human. The following applies: for half-life at 1 μM: human, pH 7.4.
The test system of another data set is prion-infected mice. The following applies: literature reports; cited from earlier work.
Data set [9] can be described thus: Hepatic microsomal stability, mouse. As to conditions: for half-life at 1 μM: pH 7.4.
Data set [10] concerns PrP^Sc in nondividing ScN2a-c13 cells. In kind it is cell-based, mouse.
The subject of data set [11] is PrP^C in T98G cells. Type of data set: cell-based, human.
Data set [12] deals with PrP^C in IMR32 cells. In kind it is cell-based, human. As to conditions: IMR32 cells.
Data set [13] concerns PrP^Sc in dividing ScN2a-c13 cells. As to conditions: dividing ScN2a-c13 cells.
Data set [14] relates to PrP^C in IMR32 cells. Type of data set: cell-based, human.
The subject of the next data set is T98G cells. In words: cells. In kind it is cell-based, human. The following applies: calcein, T98G cells.
For a further data set, the system named is IMR32 cells. Type of data set: cell-based, human.
Data set [15] has as its system PrP^C in T98G cells. In kind it is cell-based, human. As to conditions: for EC50: read-out: EC50 (μM) ELISA potency, PrP^C in T98G cells. (An ELISA detects its analyte on a solid surface through an enzyme-linked reagent.)
In a further data set the test system is PrP^C in N2a-c13 cells. In kind it is cell-based, mouse. The following applies: read-out: EC50 (μM) ELISA in N2a-cl3 cells (value in parentheses).
A short description of the next data set: in vitro. As to conditions: dog, MDCK-MDR1.
The subject of a further data set is P-gp (MDR1). In words: in vitro. The following applies: dog, MDCK-MDR1.
Another data set relates to ScN2a-c13 cells. Put plainly: cells. The following applies: Mus musculus; N=3; read-out: EC50 by calcein for cell viability. Type of data set: cell-based.
Where [16] appears, read: Table 29, 2-AMT analogs tested for potency, usually n = 3 or more.
[17] abbreviates: CD-1, mouse, mouse liver microsomes.

≈ marks a conversion by molar mass, not a printed value. Read-outs that look alike come from different tables or passages of the source.

Consider `C(=N\Nc1ccc(-c2cnco2)cc1)/c1ccncc1` [Compound B, (E)-5-(4-(2-(pyridin-4-ylmethylene)hydrazinyl)phenyl)oxazole, reference compound], for which the Toleration result in data set [1] (25, 50, 100, and 150 mg/kg for 3 days in liquid rodent diet, FVB mice) is on record as “All doses were tolerated, with no animals showing lethal toxicity”. Further, in data set [1] (≧150 mg/kg/day for 8 days), the animals dying is 2/4. For the same compound, in [2], the Kp (in general, the ratio of the level in a tissue or fluid to that in plasma or blood) was 0.5. In data set [2], the bioavailability (in general, the share of a dose that reaches the circulation, judged against a reference dose that is usually intravenous) fell in the range of 25 to 27%. Besides, the EC50 (as a rule, the concentration at which the effect is half-maximal) came to 246 nM in [3] (setting [16]) and 400 nM in [3] (read-out: EC50, PrP^Sc ELISA in dividing ScN2a-c13 cells). Further, the “Unbound (%), Human Plasma” value in the data set “Binding in human plasma” was determined as 2.10 ± 1.11%. The “Unbound (%), Cell-culture Media” value in data set [4] was 36.5 ± 3.30%. The “dose with lethal toxicity” value is greater than 110 mg/kg/day in data set [5] (administered chronically in vivo for eight days) and no less than 150 mg/kg/day in data set [5] (administered in vivo). In addition, the tolerated dose result in [5] (at least eight days) was “up to 100 mg/kg/day”. Moreover, in data set [5] (doses up to 100 mg/kg/day for at least eight days), the “brain concentration as multiple of EC50” value is given as greater than 10 ×EC50. This compound also came in with a concentration at 3 days in data set [6] (100 mg/kg/day, Brain concentrations, 3 days, FVB mice) of roughly 10000 nM. Further, the half-life (usually the time needed for the level to fall by half in the phase considered) at 1 μM was greater than 60 min in data set [7], greater than 60 min in [8] (human liver microsomes) and 30 min in data set [9] (setting [17]). Moreover, the “% remaining after a 60-min incubation, Rat” value in data set [7] came to 77%. The “Unbound (%), Mouse Plasma” value in the data set “Binding in mouse plasma” is on record as 9.06 ± 2.31%. In addition, the “% remaining after a 60-min incubation, Human” value in data set [8] (human liver microsomes) was found to be 68%. In the data set on prion-infected mice, the “effect in prion-infected mice” value was “extended the incubation times”. For the same compound, the “Hepatic Extraction Ratio Mouse” value in data set [9] (mouse) came out at 0.8. In [9] (mouse liver microsomes), the “% remaining after a 60-min incubation, Mouse” value is 29%. The “activity on PrP^Sc in nondividing cells (in words)” value in data set [10] is “inactive”.

On to `O=C(O)c1cccc2c1NC(C(=O)O)C1CC=CC21` (centres unmarked) [IND-0001270, 3a, 4,5,9b-tetrahydro-3H cyclopenta[c]quinoline-4,6-dicarboxylic acid], for which the “activity on PrP^C (in words)” value in the data set with PrP^C in T98G cells [11] and with PrP^C in IMR32 cells [12] was “active” throughout. In addition, the “antiprion activity (in words)” value in data set [13] is “active”. In [10], the “activity on PrP^Sc in nondividing cells (in words)” value is “active”.

Turning to `O=C(Cc1ccc(Br)cc1)NCc1ccccc1` [IND-0061769], the EC50 turned out to be 1840 nM in the data set on PrP^C in T98G cells [11] (read-out: EC50, PrP^C) and 2050 nM in the data set on PrP^C in IMR32 cells [12] (read-out: EC50, PrP^C). For the same compound, in the data set with PrP^C in IMR32 cells [14], the “% Inhibition: SPC (IMR32)” value is “MW: 304.2 % Inhibition: SPC (IMR32): 46 Calcein: 21 SPC (T98G): 63 Calcein: 38”. Also, in the data set on T98G cells, the “% Inhibition: Calcein (T98G)” value is given as 38%. The “% Inhibition: Calcein (IMR32)” value in the data set with IMR32 cells was 21%. Also, in the data set on PrP^C in T98G cells [15], the “% Inhibition: SPC (T98G)” value is “MW: 304.2 % Inhibition: SPC (IMR32): 46 Calcein: 21 SPC (T98G): 63 Calcein: 38”.

For `CCOC(=O)c1[nH]c2c(c1C)C(=O)CC(c1ccco1)C2` (centres unmarked) [IND87564], the EC50 with PrP^C in N2a-c13 cells turned out to be 1.12 µM; in the data set on PrP^C in T98G cells [15] it was 0.25 µM.

Regarding `NC(=O)c1ccccc1NC(=O)c1cccnc1N1CCCCC1` [IND87406], the “Hepatic Extraction Ratio Human” value in data set [8] (human liver microsomes, predicted hepatic extraction) is given as 0.65. In addition, the half-life at 1 μM turned out to be 37.1 min in data set [8] (human liver microsomes) and 6.35 min in data set [9] (mouse, mouse liver microsomes). In addition, the EC50 was found to be 3.11 µM in the data set with PrP^C in N2a-c13 cells and 1.12 µM in the data set with PrP^C in T98G cells [15]. Further, the “Hepatic Extraction Ratio Mouse” value in data set [9] (mouse liver microsomes, predicted hepatic extraction) is 0.91.

In the case of `Cc1cccc(Nc2nc(-c3cc4ccccc4o3)cs2)n1` [IND22, (4-Benzofuran-2-yl-thiazol-2-yl)-(6-methyl-pyridin-2-yl)-amine], the Toleration result in data set [1] (210 mg/kg/day for 14 days, mice) is given as “well tolerated”. The “Earliest deaths in treated mice” value in data set [1] (long-term dosing in mice) is 59 days. Further, the Kp in data set [2] came to 0.5. The compound also had a bioavailability in [2] of 46%. Moreover, the “Brain exposure (AUClast) ranking” value in data set [2] (single oral dose, FVB mice, brain) is “highest AUC values in brain”. For the same compound, the Papp A→B (as a rule, how fast a substance crosses the layer from the apical side) in “in vitro” stood at 9.5 ×10⁻⁶ cm/s. Moreover, in “in vitro”, the Papp B→A (commonly the apparent permeability from the basolateral to the apical side of a cell layer) was 8.4 ×10⁻⁶ cm/s. For the same compound, the efflux ratio – broadly, the permeability from basolateral to apical divided by that in the opposite direction, in the common usage – with P-gp (MDR1) amounted to 0.9. The EC50 was 1460 nM in data set [3] (AMT analogs tested for potency); 1460 nM in [3] (setting [16]); greater than 10000 nM with ScN2a-c13 cells; 1460 nM in [13] (read-out: EC50 (ELISA), reduction of PrP^Sc load). Further, the “solubility in FaSSIF (in words)” value (fasted-state simulated intestinal fluid) is given as “higher solubility”. Under “pH 2 (HCl) buffer”, the solubility (commonly the concentration that dissolves in the medium under given conditions) at pH 2.0 (in words) is reported as “higher solubility”. The concentration at 3 days in data set [6] (40 mg/kg, Brain Concentration (Css), three-day dosing in liquid diet, brain) was determined as 1310 ± 390 nM; in data set [6] (40 mg/kg, Plasma Concentration (Css), three-day dosing in liquid diet, plasma) it was 1490 ± 150 nM; in data set [6] (80 mg/kg, Brain Concentration (Css), three-day dosing in liquid diet, brain) it was 2700 ± 520 nM; in data set [6] (80 mg/kg, Plasma Concentration (Css), three-day dosing in liquid diet, plasma), 2140 ± 580 nM; in data set [6] (130 mg/kg, Brain Concentration (Css), three-day dosing in liquid diet, brain) it was 3740 ± 410 nM; in data set [6] (130 mg/kg, Plasma Concentration (Css), three-day dosing in liquid diet, plasma), 2500 ± 670 nM. For the same compound, the concentration at 3 days in [6] (210 mg/kg, Brain Concentration (Css), three-day dosing in liquid diet, brain) was found to be 3230 ± 2620 nM; in [6] (210 mg/kg, Plasma Concentration (Css), three-day dosing in liquid diet, plasma), 1980 ± 1240 nM. In addition, the half-life at 1 μM in data set [7] is greater than 60 min; in [8] (human liver microsomes), greater than 60 min; in [8] (liver microsomes) it was greater than 60 min; in data set [9] (CD-1, mouse, liver microsomes) it was 49 min; in data set [9] (setting [17]), 49 min. Moreover, the “% remaining after a 60-min incubation, Rat” value in [7] is on record as 64%. In data set [7] (rat microsomes), the “Hepatic Extraction Ratio Rat” value came out at 0.4. Moreover, the “% remaining after a 60-min incubation, Human” value in [8] (human liver microsomes) is reported as 99%. Further, the solubility is 59 µM (≈ 18.1 µg/mL) in “physchem” (FaSSIF); 20 µM (≈ 6.15 µg/mL) in the data set “physchem” (cell culture media, plasma or biological fluid); 12 µM (≈ 3.69 µg/mL) in “physchem” (pH 2 (HCl) buffer, pH 2, simulated gastric fluid); less than 1 µM in the data set “physchem” (pH 7.4 (phosphate) buffer, pH 7.4, aqueous buffer). The “Hepatic Extraction Ratio Mouse” value in data set [9] (mouse) and in data set [9] (mouse microsomes) was 0.7 in each case. In addition, the “% remaining after a 60-min incubation, Mouse” value in data set [9] (mouse liver microsomes) is 40%.

`COc1cc(OC)cc(C(=O)Nc2ccc(I)cn2)c1` [IND85671]: the EC50 was 0.863 µM in the data set on PrP^C in N2a-c13 cells and 1.1 µM with PrP^C in T98G cells [15].
